Test results as given in patent publication US5902812A, “Pharmaceutical piperazine compounds” (Xenova Limited, priority 1994, dated 1999).
Where a name gives a salt, the structure may show the parent alone. Read-outs that look alike come from different tables or passages of the source. One block for each compound: values may come before it.

Target: PAI-1 (Homo sapiens, UniProt P05121)
Test: biochemical
Conditions: for inhibition at 20 µM / inhibition at 50 µM / inhibition at 100 µM / inhibition at 6.25 µM / inhibition at 12.5 µM / inhibition at 25 µM: read-out: Degree of inhibition in PAI chromogenic substrate assay; for IC50: PAI chromogenic substrate assay, read-out: IC50
Experimental: In this assay, a compound is incubated with PAI-1 prior to addition to the tPA assay system. Inhibition of PAI-1 results in the production of plasmin from plasminogen. In turn, plasmin cleaves the chromogenic substrate S2251 (Kabi Vitrum) producing pNA (p-nitroaniline) which is detected spectrophotometrically at 405 nm (K. Nilsson et al, Fibrinolysis (1987) 1, 163-168).
Compounds of formula (A) were tested in a PAI chromogenic substrate assay. In the assay (K.Nilsson, Fibrinolysis (1987) 1, 163-168) each compound was incubated with PAI-1 prior to addition to the tPA assay system. […] In turn, the plasmin cleaved the chromogenic substrate S2251 (Kabi-Vitrum) producing pNA (p-nitroaniline) which was detected spectrophotometrically at 405 nm.

Sequence of PAI-1 (P05121 24-402): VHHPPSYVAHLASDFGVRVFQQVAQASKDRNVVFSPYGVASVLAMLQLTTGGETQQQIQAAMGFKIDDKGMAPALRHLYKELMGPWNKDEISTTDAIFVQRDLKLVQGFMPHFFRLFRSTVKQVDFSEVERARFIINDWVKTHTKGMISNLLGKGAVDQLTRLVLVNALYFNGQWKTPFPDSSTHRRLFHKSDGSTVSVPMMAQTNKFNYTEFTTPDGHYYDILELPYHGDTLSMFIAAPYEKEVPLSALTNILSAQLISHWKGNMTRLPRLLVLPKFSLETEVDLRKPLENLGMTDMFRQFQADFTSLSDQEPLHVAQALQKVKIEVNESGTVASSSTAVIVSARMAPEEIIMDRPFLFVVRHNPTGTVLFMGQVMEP

Degree of inhibition in PAI chromogenic substrate assay (12.5 μM): 7%
Degree of inhibition in PAI chromogenic substrate assay (25 μM): 26%
Degree of inhibition in PAI chromogenic substrate assay (50 μM): 41%
Degree of inhibition in PAI chromogenic substrate assay (100 μM): 51%
SMILES: CN(C)CCCN(CCCN(C)C)Cc1ccc(/C=c2\[nH]c(=O)/c(=C/c3ccccc3)[nH]c2=O)cc1 [Compound 1981, (3Z,6Z)-3-Benzylidene-6-(4-bis(3-dimethylaminopropyl)aminomethylbenzylidene)-2,5-piperazinedione]

inhibition at 20 µM (20 μM (third part of Table 1)): 81%
inhibition at 50 µM (50 μM (third part of Table 1)): 76%
inhibition at 100 µM (100 μM (third part of Table 1)): 75%
SMILES: CN(C)CCCOc1ccc(/C=c2\[nH]c(=O)/c(=C/c3ccc(N(C)C)cc3)[nH]c2=O)cc1 [Compound 5068.HCl, (3Z,6Z)-3-(4-Dimethylaminobenzylidene)-6-(4-(3-dimethylaminopropoxy)benzylidene)-2,5-piperazinedione]

Degree of inhibition in PAI chromogenic substrate assay (6.25 μM): 37%
Degree of inhibition in PAI chromogenic substrate assay (12.5 μM): 57%
Degree of inhibition in PAI chromogenic substrate assay (25 μM): 67%
Degree of inhibition in PAI chromogenic substrate assay (50 μM): 43%
Degree of inhibition in PAI chromogenic substrate assay (100 μM): 16%
SMILES: CN(C)CCOc1ccc(/C=c2\[nH]c(=O)/c(=C/c3ccccc3)[nH]c2=O)cc1 [Compound 1954, (3Z,6Z)-6-Benzylidene-3-(4-(2-dimethylaminoethoxy)benzylidene)-2,5-piperazinedione]

IC50: 17 µM
SMILES: CN(C)CCCOc1ccc(/C=c2\[nH]c(=O)/c(=C/c3ccc(N)cc3)[nH]c2=O)cc1 [Compound 5260]

inhibition at 20 µM (20 μM (third part of Table 1)): 30%
inhibition at 100 µM (100 μM (third part of Table 1)): 9%
IC50: 0.75 µM
SMILES: CN(C)CCCOc1ccc(/C=c2\[nH]c(=O)/c(=C/c3ccc([N+](=O)[O-])cc3)[nH]c2=O)cc1 [Compound 5230, (3Z,6Z)-3-(4-(3-dimethylaminopropoxy)benzylidene)-6-(4-nitrobenzylidene)-2,5-piperazinedione]

inhibition at 20 µM (20 μM (third part of Table 1)): 20%
SMILES: CN(C)CCCOc1ccc(/C=c2\[nH]c(=O)/c(=C/c3ccc(C(=O)Nc4ccccc4)cc3)[nH]c2=O)cc1 [Compound 5343, 4-((3Z,6Z)-6-(4-(3-Dimethylaminopropoxy)benzylidene)-2,5-dioxo-3-piperazinylidene)methylbenzanilide]

IC50: 2.8 µM
SMILES: CN(C)CCCOc1ccc(/C=c2\[nH]c(=O)/c(=C/c3ccc(Cl)c(Cl)c3)[nH]c2=O)cc1 [Compound 5236]

Degree of inhibition in PAI chromogenic substrate assay (6.25 μM): 0%
Degree of inhibition in PAI chromogenic substrate assay (12.5 μM): 13%
Degree of inhibition in PAI chromogenic substrate assay (25 μM): 51%
Degree of inhibition in PAI chromogenic substrate assay (50 μM): 41%
Degree of inhibition in PAI chromogenic substrate assay (100 μM): 66%
SMILES: CN(C)CCOc1ccc(/C=c2\[nH]c(=O)/c(=C/c3c(Cl)cccc3Cl)[nH]c2=O)cc1 [Compound 1980, (3Z,6Z)-3-(2,6-Dichlorobenzylidene)-6-(4-(2-dimethylaminoethoxy)benzylidene)-2,5-piperazinedione]

inhibition at 6.25 µM (6.25 μM): 1%
inhibition at 12.5 µM (12.5 μM): 1%
inhibition at 25 µM (25 μM): 1%
inhibition at 50 µM (50 μM): 2%
inhibition at 100 µM (100 μM): 2%
SMILES: CN(C)CCOc1ccc(/C=c2\[nH]c(=O)/c(=C/c3ccc(OCCN(C)C)cc3)[nH]c2=O)cc1 [Compound 1962, (3Z,6Z)-3,6-Di-(4-(2-dimethylaminoethoxy)benzylidene)-2,5-piperazinedione dihydrochloride]

inhibition at 6.25 µM (6.25 μM): 0%
inhibition at 12.5 µM (12.5 μM): 5%
inhibition at 25 µM (25 μM): 24%
inhibition at 50 µM (50 μM): 46%
inhibition at 100 µM (100 μM): 83%
SMILES: CCCCCCC(=O)Oc1ccc(/C=c2\[nH]c(=O)/c(=C/c3ccc(OC)cc3)[nH]c2=O)cc1 [Compound 1887, (3Z,6Z)-3-(4-Heptanoyloxybenzylidene)-6-(4-methoxybenzylidene)-2,5-piperazinedione]

inhibition at 6.25 µM (6.25 μM): 0%
Degree of inhibition in PAI chromogenic substrate assay (100 μM): 37%
SMILES: CN(C)CCOc1ccccc1/C=c1\[nH]c(=O)/c(=C/c2ccccc2)[nH]c1=O [Compound 1979, (3Z,6Z)-Benzylidene-3-(2-(2-dimethylaminoethoxy)benzylidene)-2,5-piperazinedione]

inhibition at 6.25 µM (6.25 μM): 0%
inhibition at 12.5 µM (12.5 μM): 1%
inhibition at 25 µM (25 μM): 1%
inhibition at 50 µM (50 μM): 1%
inhibition at 100 µM (100 μM): 1%
SMILES: CN(C)CCOc1cccc(/C=c2\[nH]c(=O)/c(=C/c3cccc(OCCN(C)C)c3)[nH]c2=O)c1 [Compound 1947, (3Z,6Z)-3,6-Di-(3-(2-dimethylaminoethoxy)benzylidene)-2,5-piperazinedione]

IC50: 4.5 µM
SMILES: CN(C)CCCOc1ccc(/C=c2\[nH]c(=O)/c(=C/c3cccc(Br)c3)[nH]c2=O)cc1 [Compound 5375, (3Z,6Z)-3-(3-Bromobenzylidene)-6-(4-(3-dimethylaminopropoxy)benzylidene)-2,5-piperazinedione]

inhibition at 20 µM (20 μM (third part of Table 1)): 10%
inhibition at 100 µM (100 μM (third part of Table 1)): 58%
IC50: 100 µM
SMILES: Cc1cccc(/C=c2\[nH]c(=O)/c(=C/c3ccc(OCCCN(C)C)cc3)[nH]c2=O)c1 [Compound 5187, (3Z,6Z)-6-(4-(3-Dimethylaminopropoxy)benzylidene)-3-(3-methylbenzylidene)-2,5-piperazinedione]

Degree of inhibition in PAI chromogenic substrate assay (12.5 μM): 1%
Degree of inhibition in PAI chromogenic substrate assay (25 μM): 1%
Degree of inhibition in PAI chromogenic substrate assay (50 μM): 1%
Degree of inhibition in PAI chromogenic substrate assay (100 μM): 7%
SMILES: CN(C)CCOc1ccccc1/C=c1\[nH]c(=O)/c(=C/c2ccccc2)[nH]c1=O [Compound 1946, (3Z,6Z)-3-Benzylidene-6-(2-(2-dimethylaminoethoxy)benzylidene)-2,5-piperazinedione]

Degree of inhibition in PAI chromogenic substrate assay (6.25 μM): 0%
Degree of inhibition in PAI chromogenic substrate assay (12.5 μM): 1%
Degree of inhibition in PAI chromogenic substrate assay (25 μM): 2%
Degree of inhibition in PAI chromogenic substrate assay (50 μM): 23%
Degree of inhibition in PAI chromogenic substrate assay (100 μM): 43%
SMILES: CN(C)CCOc1ccc(/C=c2\[nH]c(=O)/c(=C/c3ccccc3)[nH]c2=O)c(Cl)c1 [Compound 1951, (3Z,6Z)-3-Benzylidene-6-(2-chloro-4-(2-dimethylaminoethoxy)benzylidene)-2,5-piperazinedione]

IC50: 15 µM
SMILES: CN(C)CCCOc1ccc(/C=c2\[nH]c(=O)/c(=C/c3cc(Cl)cc(Cl)c3)[nH]c2=O)cc1 [Compound 5380, (3Z,6Z)-3-(3,5-Dichlorobenzylidene)-6-(4-(3-dimethylaminopropoxy)benzylidene)-2,5-piperazinedione]

IC50: 6.5 µM
SMILES: CN(C)CCCOc1ccc(/C=c2\[nH]c(=O)/c(=C/c3ccc(F)cc3)[nH]c2=O)cc1 [Compound 5365, (3Z,6Z)-3-(4-(3-Dimethylaminopropoxy)benzylidene)-6-(4-fluorobenzylidene)-2,5-piperazinedione]

inhibition at 20 µM (20 μM (third part of Table 1)): 72%
Degree of inhibition in PAI chromogenic substrate assay (100 μM (third part of Table 1), 100 µM): 67%
IC50: 4 µM
SMILES: CN(C)CCCOc1ccc(/C=c2\[nH]c(=O)/c(=C/c3cccc(Cl)c3)[nH]c2=O)cc1 [Compound 5237]

Degree of inhibition in PAI chromogenic substrate assay (6.25 μM): 0%
inhibition at 12.5 µM (12.5 μM): 2%
inhibition at 25 µM (25 μM): 3%
inhibition at 50 µM (50 μM): 2%
inhibition at 100 µM (100 μM): 9%
SMILES: CN(C)CCCOc1ccc(/C=c2\[nH]c(=O)/c(=C/c3ccc(OCCCN(C)C)cc3)[nH]c2=O)cc1 [Compound 1955, (3Z,6Z)-3,6-Di-(4-(3-dimethylaminopropoxy)benzylidene)-2,5-piperazinedionebis hydrogen succinate (1:2)]

IC50: 1.4 µM
SMILES: CN(C)CCCOc1ccc(/C=c2\[nH]c(=O)/c(=C/c3cccc([N+](=O)[O-])c3)[nH]c2=O)cc1 [Compound 5209, (3Z,6Z)-6-(4-(3-Dimethylaminopropoxy)benzylidene)-3-(3-nitrobenzylidene)-2,5-piperazinedione]

Degree of inhibition in PAI chromogenic substrate assay (6.25 μM): 1%
Degree of inhibition in PAI chromogenic substrate assay (12.5 μM): 1%
Degree of inhibition in PAI chromogenic substrate assay (25 μM): 1%
Degree of inhibition in PAI chromogenic substrate assay (50 μM): 1%
Degree of inhibition in PAI chromogenic substrate assay (100 μM): 3%
SMILES: CN(C)CCOc1ccc(/C=c2\[nH]c(=O)/c(=C/c3ccccc3)[nH]c2=O)cc1OCCN(C)C [Compound 1949, (3Z,6Z)-3-Benzylidene-6-(3,4-di-(2-dimethylaminoethoxy)benzylidene)-2,5-piperazinedione]

inhibition at 6.25 µM (6.25 μM): 10%
inhibition at 12.5 µM (12.5 μM): 23%
inhibition at 25 µM (25 μM): 37%
inhibition at 50 µM (50 μM): 69%
inhibition at 100 µM (100 μM): 80%
SMILES: CCCCCCOc1ccc(/C=c2\[nH]c(=O)/c(=C/c3ccc(OC)cc3)[nH]c2=O)cc1 [Compound 1907, (3Z,6Z)-3-(4-Hexyloxybenzylidene)-6-(4-methoxybenzylidene)-2,5-piperazinedione]

inhibition at 20 µM (20 μM (third part of Table 1)): 59%
IC50: 3.5 µM
SMILES: CN(C)CCCOc1ccc(/C=c2\[nH]c(=O)/c(=C/c3ccc(Br)cc3)[nH]c2=O)cc1 [Compound 5360]

inhibition at 20 µM (20 μM (third part of Table 1)): 10%
inhibition at 100 µM (100 μM (third part of Table 1)): 25%
IC50: 14 µM
SMILES: CCCCOc1ccc(/C=c2\[nH]c(=O)/c(=C/c3ccc(OCCCN(C)C)cc3)[nH]c2=O)cc1 [Compound 5250]

inhibition at 20 µM (20 μM (third part of Table 1)): 75%
inhibition at 50 µM (50 μM (third part of Table 1)): 68%
inhibition at 100 µM (100 μM (third part of Table 1)): 67%
SMILES: CN(C)CCSCc1ccc(/C=c2\[nH]c(=O)/c(=C/c3ccccc3)[nH]c2=O)cc1 [Compound 5058, (3Z,6Z)-6-Benzylidene-3-(4-(2-Dimethylaminoethylthiomethyl)benzylidene)-2,5-piperazinedione]

Degree of inhibition in PAI chromogenic substrate assay (20 μM (third part of Table 1), 20 µM): 76%
inhibition at 100 µM (100 μM (third part of Table 1)): 79%
IC50: 35 µM
SMILES: CN(C)CCCOc1ccc(/C=c2\[nH]c(=O)/c(=C/c3ccc(C(N)=O)cc3)[nH]c2=O)cc1 [Compound 5254, 4-((3Z,6Z)-6-(4-(3-Dimethylaminopropoxy)benzylidene)-2,5-dioxo-3-piperazinylidene)methylbenzamide]
